Assay results published in PubChem BioAssay (NCI).
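48-hour exposure; five concentrations; linearly interpolated endpoints. TGI marks complete inhibition of growth.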

Key:
Assay in all cases: NCI tumour cell line growth inhibition, 48 h
[1] = system: SNB-78 CNS
[2] = system: DLD-1 colon
[3] = system: LXFL 529 NSCLC
[4] = system: P388/ADR leukemia
[5] = system: P388 leukemia
[6] = system: SN12K1 renal
[7] = system: RXF-631 renal

SMILES	TGI [1]	TGI [2]	TGI [3]	TGI [4]	TGI [5]	TGI [6]	TGI [7]
c1cncc(CSc2nc3ccccc3nc2-c2cccs2)c1	> 100 µM	> 100 µM					
CC(C)(C)c1ccnc(N=C2N=C(Nc3cc(C(C)(C)C)ccn3)c3ccccc32)c1	75 µM	> 100 µM	> 100 µM				
CC(C)(C)N=NC(C)(C)N=C=O	> 100 µM	> 100 µM	> 100 µM				
CCCn1cc2c3c(cccc31)C1C=C(C)CN(C)C1C2 (stereo unspecified)	73.4 µM	54.3 µM		43.2 µM	28.5 µM	44.1 µM	
O=[N+]([O-])c1ccc(-c2csc(=[N+]3CCCCC3)s2)cc1	> 100 µM	> 100 µM	> 100 µM				> 100 µM
CN(C)CCCNC(=O)N/N=C/c1ccccc1	> 100 µM	> 100 µM					
O=C1Nc2cc(F)ccc2C1=O	> 100 µM	> 100 µM	> 100 µM				
COc1cc(N=Nc2ccc(OC)c(S(=O)(=O)O)c2)c(C)cc1N=Nc1ccc(/C=C/c2ccc(N=[N+]([O-])c3ccc(/C=C/c4ccc(N=Nc5cc(C)c(N=Nc6ccc(OC)c(S(=O)(=O)O)c6)cc5OC)cc4S(=O)(=O)O)c(S(=O)(=O)O)c3)cc2S(=O)(=O)O)c(S(=O)(=O)O)c1	> 100 µM	> 100 µM			> 100 µM	> 100 µM	
